Reference: patent publication US12404239B2, “Modulators of BCL6 as ligand directed degraders” (Celgene Corporation, priority 2022, dated 2025)

Biological target: T1, BCL6 (Homo sapiens, UniProt P41182)
T1 construct: HiBiT-tag knocked into endogenous BCL6 locus using CRISPR; endogenous in cells; host or cells: DHL-4_BCL6_HiBiT cells (CRISPR knock-in)
Experiment: BCL6_HiBiT degradation assay (2 h)
Type: cell-based
Settings: DHL-4_BCL6_HiBiT cells, read-out: YCon (% remaining maximal effect)
Procedure, shortened: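 DHL-4 cells carrying CRISPR HiBiT knock-in at endogenous BCL6, treated 2 h at 37 °C with 10-point 3-fold dilutions from 1-10 μM. BCL6 level read by Nano-Glo HiBiT lytic luminescence normalized to DMSO; four-parameter fit gives degradation EC50 and Yconstant (% remaining at maximal effect).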

Row | SMILES | Percent BCL6 remaining at maximal degradation (Ycon) [%]
1 | C[C@@H]1CN(c2ncc(C#N)c(Nc3ccc4c(c3)CC(=O)N4C)n2)CC[C@H]1Nc1ccc2c(N3CCC(=O)NC3=O)nn(C)c2c1 [Example 132, 2-((3R,4R)-4-((3-(2,4-dioxotetrahydropyrimidin-1(2H)-yl)-1-methyl-1H-indazol-6-yl)amino)-3-methylpiperidin-1-yl)-4-((1-methyl-2-oxoindolin-5-yl)amino)pyrimidine-5-carbonitrile] | < 20
2 | CN1C(=O)Cc2cc(Nc3nc(NC4CCN(c5ccc6c(N7CCC(=O)NC7=O)nn(C)c6c5)CC4)ncc3Cl)ccc21 [Example 133, 1-(6-(4-((5-chloro-4-((1-methyl-2-oxoindolin-5-yl)amino)pyrimidin-2-yl)amino)piperidin-1-yl)-1-methyl-1H-indazol-3-yl)dihydropyrimidine-2,4(1H,3H)-dione] | > 60
3 | CN1C(=O)Cc2cc(Nc3nc(N4CCC(c5ccc6c(N7CCC(=O)NC7=O)nn(C)c6c5)CC4)ncc3Cl)ccc21 [Example 134, 1-(6-(1-(5-chloro-4-((1-methyl-2-oxoindolin-5-yl)amino)pyrimidin-2-yl)piperidin-4-yl)-1-methyl-1H-indazol-3-yl)dihydropyrimidine-2,4(1H,3H)-dione] | > 60
4 | CN1C(=O)Cc2cc(Nc3nc(N4CCC(Nc5ccc6c(N7CCC(=O)NC7=O)nn(C)c6c5)CC4)ncc3Cl)ccc21 [Example 135, 1-(6-((1-(5-chloro-4-((1-methyl-2-oxoindolin-5-yl)amino)pyrimidin-2-yl)piperidin-4-yl)amino)-1-methyl-1H-indazol-3-yl)dihydropyrimidine-2,4(1H,3H)-dione] | > 60
5 | Cn1nc(N2CCC(=O)NC2=O)c2ccc(NC3CCN(c4ncc(Cl)c(Nc5ccc6c(c5)CC(=O)N6CC(F)(F)F)n4)CC3)cc21 [Example 136, 1-(6-((1-(5-chloro-4-((2-oxo-1-(2,2,2-trifluoroethyl)indolin-5-yl)amino)pyrimidin-2-yl)piperidin-4-yl)amino)-1-methyl-1H-indazol-3-yl)dihydropyrimidine-2,4(1H,3H)-dione] | > 60
6 | Cn1nc(N2CCC(=O)NC2=O)c2ccc(NC3CCN(c4ncc(Cl)c(Nc5ccc6c(c5)CC(=O)N6CCO)n4)CC3)cc21 [Example 137, 1-(6-((1-(5-chloro-4-((1-(2-hydroxyethyl)-2-oxoindolin-5-yl)amino)pyrimidin-2-yl)piperidin-4-yl)amino)-1-methyl-1H-indazol-3-yl)dihydropyrimidine-2,4(1H,3H)-dione] | 20 to 60
7 | CN1C(=O)Cc2cc(Nc3nc(N4CCC(Nc5ccc6c(N7CCC(=O)NC7=O)nn(C)c6c5)CC4)ncc3C#N)ccc21 [Example 138, 2-(4-((3-(2,4-dioxotetrahydropyrimidin-1(2H)-yl)-1-methyl-1H-indazol-6-yl)amino)piperidin-1-yl)-4-((1-methyl-2-oxoindolin-5-yl)amino)pyrimidine-5-carbonitrile] | > 60
8 | C[C@@H]1CN(c2ncc(Cl)c(Nc3ccc4c(c3)CC(=O)N4C)n2)CC[C@H]1Nc1ccc2c(-n3ccc(=O)[nH]c3=O)nn(C)c2c1 [Example 139, 1-(6-(((3R,4R)-1-(5-chloro-4-((1-methyl-2-oxoindolin-5-yl)amino)pyrimidin-2-yl)-3-methylpiperidin-4-yl)amino)-1-methyl-1H-indazol-3-yl)pyrimidine-2,4(1H,3H)-dione] | < 20
9 | C[C@@H]1CN(c2ncc(Cl)c(Nc3ccc4c(c3)CC(=O)N4C)n2)CC[C@H]1Nc1ccc2c(-n3cc(F)c(=O)[nH]c3=O)nn(C)c2c1 [Example 140, 1-(6-(((3R,4R)-1-(5-chloro-4-((1-methyl-2-oxoindolin-5-yl)amino)pyrimidin-2-yl)-3-methylpiperidin-4-yl)amino)-1-methyl-1H-indazol-3-yl)-5-fluoropyrimidine-2,4(1H,3H)-dione] | < 20
10 | C[C@@H]1CN(c2ncc(Cl)c(Nc3ccc4c(c3)CC(=O)N4C)n2)CC[C@H]1Nc1ccc2c(N3CCC(=O)NC3=O)nn(C)c2c1 [Example 141, 1-(6-(((3R,4R)-1-(5-chloro-4-((1-methyl-2-oxoindolin-5-yl)amino)pyrimidin-2-yl)-3-methylpiperidin-4-yl)amino)-1-methyl-1H-indazol-3-yl)dihydropyrimidine-2,4(1H,3H)-dione] | < 20
11 | C[C@@H]1CN(c2ncc(Cl)c(Nc3ccc4c(c3F)CC(=O)N4C)n2)CC[C@H]1Nc1ccc2c(N3CCC(=O)NC3=O)nn(C)c2c1 [Example 142, 1-(6-(((3R,4R)-1-(5-chloro-4-((4-fluoro-1-methyl-2-oxoindolin-5-yl)amino)pyrimidin-2-yl)-3-methylpiperidin-4-yl)amino)-1-methyl-1H-indazol-3-yl)dihydropyrimidine-2,4(1H,3H)-dione] | < 20
12 | C[C@@H]1CN(c2ncc(Cl)c(Nc3cnc4c(c3)CC(=O)N4C)n2)CC[C@H]1Nc1ccc2c(N3CCC(=O)NC3=O)nn(C)c2c1 [Example 143, 1-(6-(((3R,4R)-1-(5-chloro-4-((1-methyl-2-oxo-2,3-dihydro-1H-pyrrolo[2,3-b]pyridin-5-yl)amino)pyrimidin-2-yl)-3-methylpiperidin-4-yl)amino)-1-methyl-1H-indazol-3-yl)dihydropyrimidine-2,4(1H,3H)-dione] | < 20
13 | CCN1C(=O)Cc2cc(Nc3nc(N4CCC(Nc5ccc6c(N7CCC(=O)NC7=O)nn(C)c6c5)CC4)ncc3Cl)ccc21 [Example 144, 1-(6-((1-(5-chloro-4-((1-ethyl-2-oxoindolin-5-yl)amino)pyrimidin-2-yl)piperidin-4-yl)amino)-1-methyl-1H-indazol-3-yl)dihydropyrimidine-2,4(1H,3H)-dione] | > 60
14 | CO[C@@H]1CN(c2ncc(Cl)c(Nc3ccc4c(c3)CC(=O)N4C)n2)CC[C@H]1Nc1ccc2c(C3CCC(=O)NC3=O)nn(C)c2c1 (stereo partly drawn) [Example 146, 3-(6-(((3R,4R)-1-(5-chloro-4-((1-methyl-2-oxoindolin-5-yl)amino)pyrimidin-2-yl)-3-methoxypiperidin-4-yl)amino)-1-methyl-1H-indazol-3-yl)piperidine-2,6-dione] | 20 to 60
15 | C[C@H]1CN(c2ccc3c(C4CCC(=O)NC4=O)nn(C)c3c2)C(=O)C[C@H]1N(C)c1ncc(Cl)c(Nc2ccc3c(c2)CC(=O)N3C)n1 (stereo partly drawn) [Example 149, 3-(6-((4R,5S)-4-((5-chloro-4-((1-methyl-2-oxoindolin-5-yl)amino)pyrimidin-2-yl)(methyl)amino)-5-methyl-2-oxopiperidin-1-yl)-1-methyl-1H-indazol-3-yl)piperidine-2,6-dione] | 20 to 60
16 | CO[C@@H]1CN(c2ncc(Cl)c(Nc3ccc4c(c3)CC(=O)N4C)n2)CC[C@H]1Nc1ccc2c(C3(C)CCC(=O)NC3=O)nn(C)c2c1 (stereo partly drawn) [Example 154, 3-(6-(((3R,4R)-1-(5-chloro-4-((1-methyl-2-oxoindolin-5-yl)amino)pyrimidin-2-yl)-3-methoxypiperidin-4-yl)amino)-1-methyl-1H-indazol-3-yl)-3-methylpiperidine-2,6-dione] | 20 to 60
17 | CO[C@@H]1CN(c2ncc(C#N)c(Nc3ccc4c(c3)CC(=O)N4C)n2)CC[C@H]1Nc1ccc2c(C3(C)CCC(=O)NC3=O)nn(C)c2c1 (stereo partly drawn) [Example 155, 2-((3R,4R)-3-methoxy-4-((1-methyl-3-(3-methyl-2,6-dioxopiperidin-3-yl)-1H-indazol-6-yl)amino)piperidin-1-yl)-4-((1-methyl-2-oxoindolin-5-yl)amino) pyrimidine-5-carbonitrile] | 20 to 60
18 | CO[C@@H]1CN(c2ncc(Cl)c(Nc3ccc4c(c3)CC(=O)N4C)n2)CC[C@H]1Nc1ccc2c(N3CCC(=O)NC3=O)nn(C)c2c1 [Example 156, 1-(6-(((3R,4R)-1-(5-chloro-4-((1-methyl-2-oxoindolin-5-yl)amino)pyrimidin-2-yl)-3-methoxypiperidin-4-yl)amino)-1-methyl-1H-indazol-3-yl) dihydropyrimidine-2,4(1H,3H)-dione] | 20 to 60
19 | CO[C@@H]1CN(c2ncc(C#N)c(Nc3ccc4c(c3)CC(=O)N4C)n2)CC[C@H]1Nc1ccc2c(N3CCC(=O)NC3=O)nn(C)c2c1 [Example 157, 2-((3R,4R)-4-((3-(2,4-dioxotetrahydropyrimidin-1(2H)-yl)-1-methyl-1H-indazol-6-yl)amino)-3-methoxypiperidin-1-yl)-4-((1-methyl-2-oxoindolin-5-yl)amino) pyrimidine-5-carbonitrile] | 20 to 60
20 | CO[C@@H]1CN(c2nc(F)c(Cl)c(Nc3ccc4c(c3)CC(=O)N4C)n2)CC[C@H]1Nc1ccc2c(N3CCC(=O)NC3=O)nn(C)c2c1 [Example 158, 1-(6-(((3R,4R)-1-(5-chloro-4-fluoro-6-((1-methyl-2-oxoindolin-5-yl)amino)pyrimidin-2-yl)-3-methoxypiperidin-4-yl)amino)-1-methyl-1H-indazol-3-yl) dihydropyrimidine-2,4(1H,3H)-dione] | 20 to 60
21 | CO[C@@H]1CN(c2nc(F)c(Cl)c(Nc3ccc4c(c3)CC(=O)N4C)n2)CC[C@H]1Nc1ccc2c(C3(C)CCC(=O)NC3=O)nn(C)c2c1 (stereo partly drawn) [Example 159, 3-(6-(((3R,4R)-1-(5-chloro-4-fluoro-6-((1-methyl-2-oxoindolin-5-yl)amino)pyrimidin-2-yl)-3-methoxypiperidin-4-yl)amino)-1-methyl-1H-indazol-3-yl)-3-methylpiperidine-2,6-dione] | 20 to 60
